PMC7699892, “Repositioned Drugs for Chagas Disease Unveiled via Structure-Based Drug Repositioning” (International Journal of Molecular Sciences, 2020)
Where two headings read alike, the source gives them in different places.

What was measured:
T. cruzi INC-5 strain = experiment: in vivo short-term trypanocidal activity (parasitemia) in infected CD1 mice, INC-5 strain; set-up: species or system Trypanosoma cruzi in CD1 mice
Experimental: (§1) Parasitemia was monitored at 2, 4, 6, and 8 h after administration (see Figure 2).
(§2) CD1 strain mice, 6–8 weeks old, were used to maintain Ninoa and INC-5 strains of T. cruzi. Animals were given by the University of Science and Arts of Chiapas. To maintain the strains, animals were intraperitoneally inoculated every 14 days with 1 × 10^5 blood trypomastigote, obtained from parasite-infected mice. Parasitemia was monitored every three days by the Pizzi method. For this, 5 µL of blood from the caudal vein of infected mice were deposited on a slide and evenly distributed with an 18 × 18 mm coverslip. Parasite counting was performed by observing 15 microscopic fields using a 40 × objective lens. For the in vivo short term evaluation of the trypanocidal activity of the FDA-approved drugs, six groups of six CD1 mice each with homogeneous weight and parasitemia were used.
(§3) In vivo short-term evaluation of the trypanocidal activity of the FDA-approved drugs. Six groups of six CD1 female mice were infected with blood trypomastigotes of Ninoa and INC-5 strains following the methodology previously described in Romanha et al. and in Díaz-Chiguer et al.. At day 13 post-infection, when the infected mice reached an average of 5 × 10^6 parasites/mL, a single dose of the FDA-approved drugs at 100 mg/kg body weight was orally administered. Parasitemia was monitored following the Pizzi method at 2, 4, 6, and 8 h post-treatment […] using mineral oil as a vehicle. […] Mice examination was performed as stated in the Norma Official Mexicana (NOM-062-Z00-1999), published on August 2009.

T. cruzi Ninoa strain = experiment: in vivo short-term trypanocidal activity (parasitemia) in infected CD1 mice, Ninoa strain; set-up: species or system Trypanosoma cruzi in CD1 mice
Experimental: as §1, §2, §3

[1] = tested on: T. cruzi blood trypomastigote (INC-5 strain); experiment: ex vivo evaluation against blood trypomastigotes, INC-5 strain; assay type: cell-based; conditions: Trypanosoma cruzi
Excerpt: (§4) The high-priority hit drugs were subjected to experimental validation in vitro, ex vivo, and in vivo, together with a cytotoxicity assay. Ninoa and INC-5 strains of T. cruzi were used in this study. The Ninoa strain was obtained in 1986 by xenodiagnoses from an acute case of Chagas’ disease in Oaxaca, Mexico, whereas the INC-5 strain was obtained in 1997 from a chronic case of Chagas’ disease in a person in Guanajuato, Mexico.
(§5) Ex vivo evaluation of different FDA-approved drugs against Trypanosoma cruzi blood trypomastigotes. The ex vivo evaluation of the trypanocidal activity of the FDA-approved drugs was carried out according to the methodology described above. Blood from parasite infected animals was obtained from intracardiac puncture and diluted with phosphate-buffered saline (PBS), pH 7.2, until a concentration of 2 × 10^6 blood trypomastigotes/mL was obtained. From this, 195 µL of blood/well was placed in a 96-well plate and incubated at 4 °C for 24 h with 5 µL of each drug tested at different concentrations (5 µg/mL to […]). […] After incubation, live parasites were counted in a Neubauer chamber and the IC50 was calculated. Three independent experiments by triplicate were performed.

T. brucei = tested on: T. brucei; set-up: method as in Nenortas et al. 70; conditions: ref Nenortas et al. 70; read-out: EC50, active against T. brucei in vitro; cited from earlier work
[2] = tested on: T. cruzi epimastigote (Ninoa strain); experiment: in vitro evaluation against epimastigotes, Ninoa strain (resazurin); assay type: cell-based; conditions: Trypanosoma cruzi, 48 h at 28 °C
Excerpt: (§6) The high-priority hit drugs were subjected to experimental validation in vitro, ex vivo, and in vivo, together with a cytotoxicity assay. Ninoa and INC-5 strains of T. cruzi were used in this study. […] In vitro evaluation of different FDA-approved drugs against Trypanosoma cruzi epimastigotes. The epimastigote stage of Ninoa and INC5 strains of T. cruzi were used to evaluated the in vitro trypanocidal activity of different FDA-approved drugs. Both strains were maintained in liver infusion tryptose (LIT) medium, supplemented with 10% fetal bovine serum (FBS) and 0.1% penicillin–streptomycin. They were preserved by transferring 1 × 10^6 parasites/mL into a new culture medium every week. […] All compounds were initially prepared at 10 mg/mL, using dimethyl sulfoxide (DMSO) as diluent. Serial dilutions were performed using complemented LIT medium until concentrations of 100 to 0.46 µg/mL of each drug were obtained. […] After the incubation period, 20 µL of 2.5 mM resazurin solution were added to each well and incubated for 3 h. All assays were carried out in triplicate.

[3] = tested on: T. cruzi epimastigote (INC-5 strain); experiment: in vitro evaluation against epimastigotes, INC-5 strain (resazurin); assay type: cell-based; conditions: Trypanosoma cruzi, 48 h at 28 °C
Excerpt: as §6

[4] = tested on: T. cruzi blood trypomastigote (Ninoa strain); experiment: ex vivo evaluation against blood trypomastigotes, Ninoa strain; assay type: cell-based; conditions: Trypanosoma cruzi, 24 h at 4 °C
Excerpt: as §4, §5

T. cruzi [5] = tested on: T. cruzi; set-up: method as in PMID 25033456; conditions: read-out: EC50, inhibition of T. cruzi growth in vitro; cited from earlier work; as to Trypan. Activity: key: ? indicates unknown activity; + indicates indirect evidence of activity; ++ indicates direct evidence of activity
T. cruzi [6] = tested on: T. cruzi; set-up: method as in per drug in column Reference of Table 2; conditions: class of literature evidence of trypanocidal activity; ref per drug in Table 2; cited from earlier work; as to Trypan. Activity: key: ? indicates unknown activity; + indicates indirect evidence of activity; ++ indicates direct evidence of activity
T. cruzi DHFR = biological target: T. cruzi DHFR; set-up: method as in PMID 12084467; conditions: read-out: Ki, inhibitor of T. cruzi DHFR; cited from earlier work
[7] = tested on: T. cruzi reverse transcriptase; set-up: method as in PMID 8913446; conditions: cited from earlier work

Structure (SMILES)	Parasitemia inhibition percentage over the time, 2 horas INC-5 (T. cruzi INC-5 strain; 100 mg/kg oral, 2 horas, INC-5)	Parasitemia inhibition percentage over the time, 4 horas INC-5 (T. cruzi INC-5 strain; 100 mg/kg oral, 4 horas, INC-5)	Parasitemia inhibition percentage over the time, 6 horas INC-5 (T. cruzi INC-5 strain; 100 mg/kg oral, 6 horas (first column so headed), INC-5)	Parasitemia inhibition percentage over the time, 6 horas INC-5 (T. cruzi INC-5 strain; 100 mg/kg oral, 6 horas (second, last column so headed), INC-5)	parasitemia inhibition (T. cruzi INC-5 strain; mice infected with INC-5 strain, single oral dose 100 mg/kg, eight hours after administration) [%]	Parasitemia inhibition percentage over the time, 2 horas Ninoa (T. cruzi Ninoa strain; 100 mg/kg oral, 2 horas, Ninoa)	Parasitemia inhibition percentage over the time, 4 horas Ninoa (T. cruzi Ninoa strain; 100 mg/kg oral, 4 horas, Ninoa)	Parasitemia inhibition percentage over the time, 6 horas Ninoa (T. cruzi Ninoa strain; 100 mg/kg oral, 6 horas (first column so headed), Ninoa)	Parasitemia inhibition percentage over the time, 6 horas Ninoa (T. cruzi Ninoa strain; 100 mg/kg oral, 6 horas (second, last column so headed), Ninoa)	parasitemia inhibition (T. cruzi Ninoa strain; mice infected with Ninoa strain, single oral dose 100 mg/kg, eight hours after administration) [%]	IC50 ([1]; ex vivo, INC-5 strain, 24 h at 4 °C, read-out: T.cruzi blood trypomastigote IC50 INC-5) [µM]	IC50 ([1]; rounded value in the discussion, refers to Table 3, strain not stated, read-out: IC50, inhibitor of T. cruzi trypomastigotes) [µM]	EC50 (T. brucei) [µM]	IC50 [2] [µM]	IC50 [3] [µM]	IC50 [4] [µM]	EC50 (T. cruzi [5]) [µM]	Trypan. Activity (T. cruzi [6])	Ki (T. cruzi DHFR) [µM]	inhibition of T. cruzi reverse transcriptase [7]
O=C(O)c1cn(C2CC2)c2cc(N3CCNCC3)c(F)cc2c1=O [Ciprofloxacin]	100	75	62.5	56.2	43.8	100	50	33.3	33.3	66.7	21.3 ± 0.09	21	52	> 400	> 400	25.7 ± 0.04				
CCc1nc(N)nc(N)c1-c1ccc(Cl)cc1 [Pyrimethamine]																	3.8	++	0.1	
Cc1cn([C@H]2C[C@H](N=[N+]=[N-])[C@@H](CO)O2)c(=O)[nH]c1=O [Zidovudine]																		++		does not inhibit
